Assay results taken from patent US20210347823A1, “METHODS OF PHYSICOCHEMICAL-GUIDED PEPTIDE DESIGN AND NOVEL PEPTIDES DERIVED THEREFROM” (Massachusetts Institute of Technology, priority 2018, published 2021).
Where no end group is shown, it is not given here.

Legend:
[1] = system: Gram-positive bacteria, Gram-negative bacteria and fungi (twelve different strains); experiment: Liquid growth inhibition MIC against larger panel of microorganisms (MIC average); format: cell-based; settings: average of MIC over twelve different strains
From the text: FIGS. 5A-5D. Antimicrobial activity of second-generation library of synthetic peptides. FIG. 5A. In vitro activity of Pol-CP—NH2 and second generation of analogs against Gram-positive bacteria (Micrococcus luteus, Staphylococcus aureus, Staphylococcus epidermidis and Bacillus megaterium), Funghi (Candida albicans and Candida tropicalis) and Gram-negative bacteria (Escherichia coli, Enterobacter cloacae and Serratia marcescens). Experiments performed in triplicates. FIG. 5B. MIC (μmol L^−1) average vs fH in TFE/Water solution. FIG. 5C. Graph correlating MIC (μmol L^−1) averages vs H and (FIG. 5D) MIC (μmol L^−1) averages vs μH, where dots above the dashed line represent peptides with lower activity and dots below the dashed line show peptides with higher activity compared to the wild-type, in which one can observe ranges of optimal activity in determined intervals of H and μH values.
Microorganisms. The following strains were used: Micrococcus luteus A270, Staphylococcus aureus ATCC29213, Staphylococcus epidermidis ATCC12228, Bacillus megaterium ATCC10778 Escherichia coli SBS 363, Enterobacter cloacae ®-12, Serratia marcescens ATCC4112, Candida albicans MDM8, Candida tropicalis IOC4560 from Instituto Butanta, Sao Paulo, Brazil, and Escherichia coli BL21, Pseudomonas aeruginosa PA14, Pseudomonas aeruginosa PA01 and Staphylococcus aureus ATCC12600 from Synthetic Biology Group at MIT.
MIC assays. The MIC assays were performed using the broth microdilution method (Wiegand I. et al., Protoc. 3, 163-175 (2008); de la Fuente-Núñez C. et al., Antimicrob. Agents Chemother. 56, 2696-2704 (2012)) in sterile 96-well polypropylene microtiter plates. Peptides were added to the plate as solutions in BM2 minimal medium in concentrations ranging from 0 to 128 ? mol L^−1, and the bacteria were inoculated at a final concentration of 5×10^5 CFU mL^−1 per well. The plates were incubated at 37° C. for 24 h. The MIC was defined as the lowest concentration of compound at which no growth was observed. Additional liquid growth inhibition assays were done in Peptone Broth (PB, 0.5% NaCl, 1% Peptone at pH 7.4) and Potato Dextrose Broth (Invitrogen) were used for antibacterial and antifungal assays, respectively. Briefly, bacteria or fungi were incubated with serial dilutions of polybia-CP and analogs (50-0.09 μmol L^−1) in a 96-well microplate at 37° C. The microbial growth was assessed by measurements in a model 354 Multiskan Ascent microplate reader at A595nm, after 18 and 24 h (bacteria and fungi, respectively) incubation on a model 347CD FANEM incubator. MIC was defined as the minimal inhibitory concentration that prevents 100% of the bacterial growth. All assays were done in triplicate.

human red blood cells = experiment: Hemolytic activity assay; format: cell-based; settings: for HC50: concentration needed for 50% hemolysis, human RBC in PBS, room temperature, 1 h, 0.1-100 μmol L^−1
Description: (§1) FIGS. 6A-6B. Hemolysis and resistance to protease-mediated degradation of engineered peptides. FIG. 6A. Schematic of experimental design and hemolytic assay results of Pol-CP—NH2 and derivatives, where hemolytic activity was evaluated by incubating the peptides (0.1-100 μmol L^−1) with human red blood cells in PBS at room temperature for 1 h. Experiments were performed in triplicate, (*p<0.05). FIG. 6B. Resistance to degradation of Pol-CP—NH2 and analogs exposed to fetal bovine serum (FBS) proteases for 6 h. Experiments were done in triplicate.
Hemolytic Activity Assays. Human erythrocytes were collected and washed three times by centrifugation at 300×g with PBS (pH 7.4). After the last centrifugation, the cells were resuspended in PBS pH 7.4. Aliquots at a concentration of 0.1 to 100 ? mol L^−1 of the peptides were added to the 96-well microplate, where in each well containing 50 ? L of a suspension of erythrocytes to 0.4% in a phosphate saline buffer (10 mmol L^−1 Na2HPO4, 1.8 mmol L^−1 […], pH 7.4, 137 mmol L^−1 NaCl and 2.7 mmol L^−1KCl). After that, the samples were incubated at room temperature for 1 h. Hemolysis was determined by reading absorbance at 405 nm of each well in a bed of plates. 1% SDS in PBS solution was used as positive control (Shalel S. et al., J. Colloid Interface Sci. 252, 66-76 (2002); Love L. J. Cell. Comp. Physiol. 36, 133-148 (1950)) and as negative control was used PBS only. MHC was defined as the maximal non-hemolytic concentration.

[2] = Stability assay in fetal bovine serum; format: in vitro ADME; settings: for resistance to protease-mediated degradation: fetal bovine serum, 6 h
Description: as §1
Stability Assays. The stability assay was performed with GIBCO fetal bovine serum diluted to 25% in water. 20 ? L of a 10 mg mL^−1 peptide solution was added to 1 mL 25% serum solution and kept at 37° C. The experiments were made in triplicate and 100 ? L aliquots were taken at 0, 0.5, 1, 2, 4 and 6 h. 10 ? L of TFA was added to the aliquots and the new solution was kept at 5° C. for 10 min, after that it was centrifuged at 14,000 rpm for 15 min, according to Powell et al. (Powell M. F. et al., Pharm. Res. 10, 1268-1273 (1993)). The reaction kinetics was followed by liquid chromatography and the percentage of remaining peptide was calculated by integrating the peptide peak area.

[3] = system: HEK293 human embryonic kidney cells; experiment: Cytotoxicity assay (MTS); format: cell-based; settings: for Cytotoxicity: HEK293, 48 h, MTS, peptides 0-64 μmol L^−1
Description: FIGS. 7A-7B. Cytotoxicity of engineered peptides. FIG. 7A. Schematic of the experimental design for cytotoxicity assays of Pol-CP—NH2 and derivatives against HEK293 human embryonic kidney cells. Briefly, cells were cultured in DMEM medium supplemented with FBS and antibiotics at 37° C. and 5% CO2. FIG. 7B. Results obtained by seeding HEK293 50,000 cells and incubating with peptides' solution (0-64 μmol L^−1) at 37° C. for 48 h. Cell viability was measured by MTS assay. All experiments were performed in triplicate.
Cytotoxicity assays. Human embryonic kidney 293 (HEK 293) cells were cultured in Dulbecco's Modified Eagle Medium (DMEM) supplemented with 10% Fetal Bovine Serum (FBS) and 1% penicillin-streptomycin at 37° C. in 5% CO2. The day before treatment, 50,000 HEK 293 cells were seeded into each well in 96-well plates. The peptides were added at concentrations ranging from 0 to 64 ? mol L^−1 and 48 h after exposure, cell viability was measured by means of MTS (dimethylthiazol-carboxymethoxyphenyl-sulfophenyl-tetrazolium) assay. Experiments were performed in triplicate for each condition.

[4] = system: E. coli BL21, P. aeruginosa PA01 and PA14, and S. aureus ATCC12600; experiment: In vitro antimicrobial activity against first set of bacteria (Ala-scan analogs); format: cell-based; settings: Gram-positive and Gram-negative bacteria
From the text: FIGS. 2A-2E. Design, physicochemical features and activity of Pol-CP—NH2 and Ala-scan analogs. FIG. 2A. Theoretical physicochemical properties of interest of the wild type and Ala-scan analogs, where H denotes hydrophobicity, μH is the hydrophobic moment, q represents the net charge and P/N is the ratio of polar/non-polar residues in the sequence. Top to bottom, left to right the sequences correspond to SEQ ID NOs: 1-13. FIG. 2B. Schematic of the in vitro biological activity experimental design. Briefly, 10^4 bacterial cells and serially diluted peptides (0-128 μmol L^−1) were added to a 96-well plate and incubated at 37° C. One day after the exposure, the solution in each well was measured in a microplate reader (600 nm) to check inhibition of bacteria compared to the untreated controls and presented as heat maps of antimicrobial activities (μmol L^−1) against four bacteria strains: E. coli strain BL21, S. aureus strain ATCC12600 and P. aeruginosa strains PA01, and PA14. Assays were performed in triplicates. FIG. 2C. Graph correlating MIC (μmol L^−1) averages vs H and (FIG. 2D) MIC (μmol L^−1) averages vs μH, where dots […] the dashed line show peptides with higher activity compared to the wild type, in which one can observe ranges of optimal activity in determined intervals of H and μH values. FIG. 2E. […]

For “ILGTLLGLKKSL-NH2 [Peptide 13, ILGTLLGLKKSL-NH2]”, the “MIC Average” value [1] was >50.0 µM and the HC50 (human red blood cells) was >100.0 µmol/L.
With “ILGTILGLFKSL-NH2 [Peptide 17, ILGTILGLFKSL-NH2]” the “MIC Average” value [1] was 20.0 µM, the HC50 (human red blood cells) was 50.0 µmol/L and the “hemolytic activity (concentration at which hemolytic)” value (human red blood cells; human red blood cells, range evaluated 0-100 μmol L^−1, listed as [Phe]^9-Pol-CP—NH2) was ~50 µmol/L. For the same compound, the “hemolytic activity” value (human red blood cells; range of concentrations evaluated 0-100 μmol L^−1) was “hemolytic”.
For “ILGKILGLLKSL-NH2 [Peptide 15, ILGKILGLLKSL-NH2]”, the “MIC Average” value [1] was 3.3 µM, the HC50 (human red blood cells) was >100.0 µmol/L and the remaining at 6 h, 0.196 mg/mL ([2]; fetal bovine serum diluted to 25% in water, after six hours of exposure to fetal bovine serum, read-out: remaining peptide (% of initial concentration added)) was ~50%. For the same compound, the “resistance to protease-mediated degradation” value [2] was “increased resistance to protease-mediated degradation”, the Cytotoxicity [3] was 32.0 µmol/L and the “cytotoxic concentration relative to MIC against P. aeruginosa” value ([3]; HEK293 cytotoxicity vs MIC) was “two- to four-fold higher”.
In the case of “ILGTILALLKSL-NH2 [Peptide 7, ILGTILALLKSL-NH2]”, the Cytotoxicity [3] was 32.0 µmol/L.
With “ILGTALGLLKSL-NH2 [Peptide 5, ILGTALGLLKSL-NH2]” the Cytotoxicity [3] was >64.0 µmol/L.
Compound “ILGTILGLLKAL-NH2 [Peptide 11, ILGTILGLLKAL-NH2]” has a Cytotoxicity [3] of 64.0 µmol/L.
For “ILGTKLGLLKSL-NH2 [Peptide 14, ILGTKLGLLKSL-NH2]”, the “MIC Average” value [1] was >50.0 µM and the HC50 (human red blood cells) was >100.0 µmol/L.
For “ILATILGLLKSL-NH2 [Peptide 3, ILATILGLLKSL-NH2]”, the Cytotoxicity [3] was >64.0 µmol/L.
With “GLGTILGLLKSL-NH2 [Peptide 20, GLGTILGLLKSL-NH2]” the “MIC Average” value [1] was 16.7 µM, the HC50 (human red blood cells) was >100.0 µmol/L and the “resistance to protease-mediated degradation” value [2] was “degraded in a few minutes”. The Cytotoxicity [3] was >64.0 µmol/L.
In the case of ILGTIAGLLKSL-NH2 [Peptide 6], the “antimicrobial activity compared with wild type” value [4] was “preserved the antimicrobial activity”.
In the case of CC[C@H](C)[C@H](N)C(=O)N[C@@H](CC(C)C)C(=O)NCC(=O)N[C@H](C(=O)N[C@H](C(=O)N[C@@H](CC(C)C)C(=O)NCC(=O)N[C@@H](CC(C)C)C(=O)N[C@@H](CC(C)C)C(=O)N[C@@H](CCCCN)C(=O)N[C@@H](CO)C(N)=O)[C@@H](C)CC)[C@@H](C)O [Peptide 18], the “MIC Average” value [1] was >50.0 µM and the HC50 (human red blood cells) was >100.0 µmol/L.
